# In PubChem BioAssay AID1996:
# Conditions: buffer; pH 7.4; 200.0 µM
row,solubility kinetic,Structure (SMILES)
1,0.4 µg/mL,Cc1c(Cl)cccc1NC(=S)NCCc1ccc(Cl)cc1
2,29.8 µg/mL,CC(=O)c1ccc(N2CCN(Cc3nc4ccccc4[nH]3)CC2)cc1
3,> 35.6 µg/mL,O=C(NCCc1cccs1)c1cccs1
4,0.6 µg/mL,CCc1ccc(NC(=O)NCc2ccc3c(c2)OCO3)cc1
5,0.8 µg/mL,O=C(Nc1nc(-c2ccc(F)c(F)c2)cs1)c1cnccn1
6,> 36.5 µg/mL,N#Cc1ccc(OCc2ccc(C(=O)O)o2)cc1
7,6.7 µg/mL,N=c1oc2ccccc2cc1C(=O)NCc1ccccc1
8,13.5 µg/mL,O=C(Nc1ccc(F)c(Cl)c1)C1CCCC1
9,> 36.8 µg/mL,O=C(COc1ccccc1)Nc1ccc(F)cc1
10,> 36.8 µg/mL,CNc1ccc(S(=O)(=O)NC)cc1[N+](=O)[O-]
11,34.5 µg/mL,COc1ccccc1CNc1ncnc2sccc12
12,24 µg/mL,CCN(CC)CCCN=C(N)N.O=S(=O)(O)O
13,18.2 µg/mL,O=C(COC(=O)c1ccccc1Br)Nc1cccnc1Cl
14,> 41.3 µg/mL,O=C(NN1CCOCC1)c1cc(Cl)ccc1Cl
15,> 31.2 µg/mL,Cc1cc(-c2onc(C)c2C(=O)O)no1
16,> 38.8 µg/mL,O=[N+]([O-])C(=C1NCCN1)C(Cl)=C(Cl)Cl
17,52 µg/mL,N#Cc1c(-c2ccccc2)nc(SCc2ccc([N+](=O)[O-])cc2)[nH]c1=O
18,> 41.2 µg/mL,N#CCCN(CCC#N)C(=S)NC1CC2C=CC1C2 (stereo not given)
19,55.8 µg/mL,COC(=O)C(NC(=O)CN1C(=O)c2ccccc2C1=O)c1ccc(O)c(OC)c1 (stereo not given)
20,14.9 µg/mL,Cc1ccnc(NC(=O)CCNC(=O)c2ccc(Cl)cc2)c1
21,10.4 µg/mL,C=CCc1c(C)nc(SCc2ccccc2)[nH]c1=O
22,0.6 µg/mL,CN(C)c1nc(-c2cccnc2)nc(-c2ccccc2)c1C#N
23,35.2 µg/mL,CC1(C)CC(=O)C(C(O)c2ccccc2)C(C)(C)N1 (stereo not given)
24,31.3 µg/mL,O=C(N/C=C/c1ccco1)Nc1cccc(Cl)c1
25,42.6 µg/mL,Cc1cc(S(=O)(=O)NCCCN2CCOCC2)c(Cl)cc1Cl

row,solubility kinetic,Structure (SMILES)
1,34.6 µg/mL,CCN1CCN(c2ccc(S(=O)(=O)N3CCCC3)cn2)CC1
2,< 0.2 µg/mL,COc1cccc(NC(=O)Nc2ccc(Br)cn2)c1
3,0.7 µg/mL,Cc1cccc(N2CCN(C(=O)NC3CCCCC3)CC2)c1C
4,31.4 µg/mL,CCOCCCNC(=O)c1c[nH]c2ccc(OCC)cc2c1=O
5,17.6 µg/mL,COC(OC)c1ccnc(SCc2ccccc2Cl)n1
6,29.5 µg/mL,O=C(c1ccccc1Cl)N1CCn2c1nc1ccccc12
7,> 35.8 µg/mL,CN1CCN(C(=O)c2ccc(Cl)cc2)CC1
8,> 33 µg/mL,C=CCNC(=O)c1cc2sccc2n1C
9,2.7 µg/mL,Cc1ccc(C(=O)NC(=S)Nc2ccc(CN3CCOCC3)cc2)cc1
10,9 µg/mL,Clc1ccc(CN2CCCCCC2)cc1Cl
11,> 39.4 µg/mL,CCc1ccccc1NC(=S)N1CCCCCC1
12,< 0.3 µg/mL,CC1CCCC(NC(=O)CCCn2c(=S)[nH]c3ccccc3c2=O)C1C (stereo not given)
13,42.9 µg/mL,COc1cc(CN2CCCC(C)C2)ccc1OCc1ccccc1 (stereo not given)
14,34.3 µg/mL,COc1ccc(Cl)cc1C(=O)NCc1ccc2c(c1)OCO2
15,22.7 µg/mL,Cc1ccc(S(=O)(=O)NCC(=O)Nc2cccc([N+](=O)[O-])c2)cc1
16,2.9 µg/mL,CCC(C)C(=O)Nc1ccccc1N1CCN(c2ccc(F)cc2)CC1 (stereo not given)
17,< 0.3 µg/mL,Cc1ccccc1COc1ccc(/C=C(\C#N)C(N)=O)cc1
18,41.4 µg/mL,CCS(=O)(=O)N1CCN=C1SC(C)c1ccccc1 (stereo not given)
19,4.9 µg/mL,O=C(COC(=O)c1ccc(F)cc1F)NCc1ccc2c(c1)OCO2
20,> 50.2 µg/mL,O=[N+]([O-])c1ccccc1S(=O)(=O)N(CC1CO1)c1ccccc1 (stereo not given)
21,> 49.8 µg/mL,O=C(COC(=O)c1ccc([N+](=O)[O-])o1)NCCCc1ccccc1
22,> 40 µg/mL,CC(C)N1C(=O)CCC1C(=O)NCc1cccs1 (stereo not given)
23,> 25.5 µg/mL,N#CC(C#N)=CNc1cccnc1
24,43.6 µg/mL,COc1ccc2[nH]cc(CCNC(=S)NC3CCCC3)c2c1

row,Structure (SMILES),solubility kinetic
1,CC(O)CNCCOc1cccc(Oc2ccccc2)c1.O=C(O)C(=O)O (stereo not given),45.6 µg/mL
